Assay results reported in patent US5491155A, “Substituted thiadiazoles, compositions containing them and their use as antimicrobial and marine antifouling agents” (The Dow Chemical Company, priority 1994, dated 1996).
Values after ≈ are worked out from the molar mass of the structure shown. Where two headings read alike, the source gives them in different places. Blank lines part the entries; values can stand above or below the molecule they belong to.

Key:
[1] = system: Trichoderma viride; assay: MIC in malt yeast agar, Trichoderma viride; format: cell-based, Trichoderma viride (ATCC 8678); details: read-out: Minimum Inhibitory Concentration (MIC)
Procedure: (§1) The minimum inhibitory concentration (MIC) for the compounds listed in Table I is determined for bacteria, using nutrient agar, and 7 yeast and fungi, using malt yeast agar. A one percent solution of the test compound is prepared in a mixture of acetone and water.
(§2) Malt yeast agar is prepared by adding 3 g yeast extract and 45 g malt agar per liter of deionized water. The specific agar is dispensed in 30 mL aliquots into 25×200 mm test tubes, capped and autoclaved for 15 minutes at 115° C.
(§3) The test tubes containing the agar are cooled in a water bath until the temperature of the agar is 48° C. Then, an appropriate amount of the one percent solution of the test compound is added (except in the controls where no compound is added) to the respective test tubes so that the final concentrations are 500, 250, 100, 50, 25, 10, 2.5, 1.0 and zero parts per million of the test compound in the agar, thus having a known concentration of test compound dispersed therein. The contents of the test tubes are then transferred to respective petri plates. After drying for 24 hours, the petri plates containing nutrient agar are inoculated with bacteria and those containing malt yeast agar are inoculated with yeast and fungi.
(§4) The inoculation with the yeast and fungi is accomplished as follows. Cultures of yeast and fungi are incubated for seven days on malt yeast agar at 30° C. These cultures are used to prepare suspensions by the following procedure. A suspension of each organism is prepared by adding 10 mL of sterile saline and 10 microliters of octylphenoxy polyethoxy ethanol to the agar slant of yeast or fungi. The sterile saline/octylphenoxy polyethoxy ethanol solution is then agitated with a sterile swab to suspend the microorganism grown on the slant. Each resulting suspension is diluted into sterile saline (1 part suspension: 9 parts sterile saline). Aliquots of these dilutions are placed in individual wells of Steer's Replicator and petri plates inoculated as previously described. The petri plates are incubated at 30° C. and read after 48 hours for yeast and 72 hours for fungi.
(§5) Table II lists the bacteria, yeast and fungi used in the MIC test described above along with their respective American Type Culture Collection (ATCC) identification numbers.
(§6) In Tables III and IV, the MIC values of the compounds described in Table I as compared to the MIC of a standard commercial preservative (with 1-(3-chloroalkyl)-3,5,7-triaza-1-azoniaadamantane chloride as the active agent and referred to in Tables III and IV as "STANDARD I") are set forth for the bacteria organisms and yeast/fungi organisms which are listed in Table II.

[2] = system: Proteus vulgaris; assay: MIC in nutrient agar, Proteus vulgaris; format: cell-based, Proteus vulgaris (ATCC 881)
Procedure: as §1
(§7) Nutrient agar is prepared at pH 6.8, representing a neutral medium, and at pH 8.2, representing an alkaline medium. The nutrient agars are prepared by adding 23 g of nutrient agar to one-liter of deionized water. In addition, the alkaline medium is prepared by adjusting a 0.04M solution of N-(tris-(hydroxymethyl)methyl)glycine buffered deionized water with concentrated sodium hydroxide to a pH of 8.5.
as §3
(§8) The inoculation with bacteria is accomplished by using the following procedure. Twenty-four hour-cultures of each of the bacteria are prepared by incubating the respective bacteria in tubes containing nutrient broth for 24 hours at 30° C. in a shaker. Dilutions of each of the 24 hour-cultures are made so that nine separate suspensions (one for each of the nine test bacteria) are made, each containing 10^8 colony forming units (CFU) per mL of suspension of a particular bacteria. Aliquots of 0.3 mL of each of the bacterial suspensions are used to fill the individual wells of Steer's Replicator. For each microbial suspension, 0.3 mL was used to fill three wells (i.e., three wells of 0.3 mL each) so that for the nine different bacteria, 27 wells are filled. The Steer's Replicator is then used to inoculate both the neutral and alkaline pH nutrient agar petri plates.
(§9) The inoculated petri plates are incubated at 30° C. for 48 hours and then read to determine if the test compound which is incorporated into the agar prevented growth of the respective bacteria.
as §5, §6

[3] = system: Saccharomyces cerevisiae; assay: MIC in malt yeast agar, Saccharomyces cerevisiae; format: cell-based, Saccharomyces cerevisiae (ATCC 4105); details: read-out: Minimum Inhibitory Concentration (MIC)
Procedure: as §1, §2, §3, §4, §5, §6

[4] = system: Bacillus subtilis; assay: MIC in nutrient agar, Bacillus subtilis; format: cell-based, Bacillus subtilis (ATCC 8473)
Procedure: as §1, §7, §3, §8, §9, §5, §6

[5] = system: Aureobasidium pullulan; assay: MIC in malt yeast agar, Aureobasidium pullulan; format: cell-based, Aureobasidium pullulan (ATCC 16622); details: read-out: Minimum Inhibitory Concentration (MIC)
Procedure: as §1, §2, §3, §4, §5, §6

[6] = system: Pseudomonas aeruginosa; assay: MIC in nutrient agar, Pseudomonas aeruginosa (Pa); format: cell-based, Pseudomonas aeruginosa (ATCC 10145)
Procedure: as §1, §7, §3, §8, §9, §5, §6

[7] = system: Aspergillus niger; assay: MIC in malt yeast agar, Aspergillus niger; format: cell-based, Aspergillus niger (ATCC 16404); details: read-out: Minimum Inhibitory Concentration (MIC)
Procedure: as §1, §2, §3, §4, §5, §6

[8] = system: Candida albicans; assay: MIC in malt yeast agar, Candida albicans; format: cell-based, Candida albicans (ATCC 10231); details: read-out: Minimum Inhibitory Concentration (MIC)
Procedure: as §1, §2, §3, §4, §5, §6

[9] = system: Fusarium oxysporum; assay: MIC in malt yeast agar, Fusarium oxysporum; format: cell-based, Fusarium oxysporum (ATCC 48112); details: read-out: Minimum Inhibitory Concentration (MIC)
Procedure: as §1, §2, §3, §4, §5, §6

[10] = system: Staphylococcus aureus; assay: MIC in nutrient agar, Staphylococcus aureus; format: cell-based, Staphylococcus aureus (ATCC 6538)
Procedure: as §1, §7, §3, §8, §9, §5, §6

[11] = system: Klebsiella pneumonias; assay: MIC in nutrient agar, Klebsiella pneumonias; format: cell-based, Klebsiella pneumonias (ATCC 8308)
Procedure: as §1, §7, §3, §8, §9, §5, §6

[12] = system: Pseudomonas aeruginosa (PRD-10); assay: MIC in nutrient agar, Pseudomonas aeruginosa (PRD-10); format: cell-based, Pseudomonas aeruginosa (ATCC 15442)
Procedure: as §1, §7, §3, §8, §9, §5, §6

[13] = system: Escherichia coli; assay: MIC in nutrient agar, Escherichia coli; format: cell-based, Escherichia coli (ATCC 11229)
Procedure: as §1, §7, §3, §8, §9, §5, §6

[14] = system: Salmonella choleraesuis; assay: MIC in nutrient agar, Salmonella choleraesuis; format: cell-based, Salmonella choleraesuis (ATCC 10708); details: Salmonella enterica
Procedure: as §1, §7, §3, §8, §9, §5, §6

[15] = system: Penicillium chrysogenum; assay: MIC in malt yeast agar, Penicillium chrysogenum; format: cell-based, Penicillium chrysogenum (ATCC 9480); details: read-out: Minimum Inhibitory Concentration (MIC)
Procedure: as §1, §2, §3, §4, §5, §6

[16] = system: Enterobacter aerogenes; assay: MIC in nutrient agar, Enterobacter aerogenes; format: cell-based, Enterobacter aerogenes (ATCC 13048); details: Klebsiella aerogenes
Procedure: as §1, §7, §3, §8, §9, §5, §6

[17] = 48 h, pH 6.8, read-out: Minimum Inhibitory Concentration (MIC)
[18] = 48 h, pH 8.2, read-out: Minimum Inhibitory Concentration (MIC)
[19] = Tv, malt yeast agar, 30° C., 72 hours for fungi
[20] = Pv, pH 6.8, 30° C., 48 hours, read-out: Minimum Inhibitory Concentration (MIC)
[21] = Pv, pH 8.2, 30° C., 48 hours, read-out: Minimum Inhibitory Concentration (MIC)
[22] = Sc, malt yeast agar, 30° C., 48 hours for yeast
[23] = Bs, pH 6.8, 30° C., 48 hours, read-out: Minimum Inhibitory Concentration (MIC)
[24] = Bs, pH 8.2, 30° C., 48 hours, read-out: Minimum Inhibitory Concentration (MIC)
[25] = Ap, malt yeast agar, 30° C., 72 hours for fungi
[26] = Pa, pH 6.8, 30° C., 48 hours, read-out: Minimum Inhibitory Concentration (MIC)
[27] = Pa, pH 8.2, 30° C., 48 hours, read-out: Minimum Inhibitory Concentration (MIC)
[28] = An, malt yeast agar, 30° C., 72 hours for fungi
[29] = Ca, malt yeast agar, 30° C., 48 hours for yeast
[30] = Fo, malt yeast agar, 30° C., 72 hours for fungi
[31] = Sa, pH 6.8, 30° C., 48 hours, read-out: Minimum Inhibitory Concentration (MIC)
[32] = Sa, pH 8.2, 30° C., 48 hours, read-out: Minimum Inhibitory Concentration (MIC)
[33] = Kp, pH 6.8, 30° C., 48 hours, read-out: Minimum Inhibitory Concentration (MIC)
[34] = Kp, pH 8.2, 30° C., 48 hours, read-out: Minimum Inhibitory Concentration (MIC)
[35] = PRD, pH 6.8, 30° C., 48 hours, read-out: Minimum Inhibitory Concentration (MIC)
[36] = PRD, pH 8.2, 30° C., 48 hours, read-out: Minimum Inhibitory Concentration (MIC)
[37] = Ec, pH 6.8, 30° C., 48 hours, read-out: Minimum Inhibitory Concentration (MIC)
[38] = Ec, pH 8.2, 30° C., 48 hours, read-out: Minimum Inhibitory Concentration (MIC)
[39] = Sc, pH 6.8, 30° C., 48 hours, read-out: Minimum Inhibitory Concentration (MIC)
[40] = Sc, pH 8.2, 30° C., 48 hours, read-out: Minimum Inhibitory Concentration (MIC)
[41] = Pc, malt yeast agar, 30° C., 72 hours for fungi
[42] = Ea, pH 6.8, 30° C., 48 hours, read-out: Minimum Inhibitory Concentration (MIC)
[43] = Ea, pH 8.2, 30° C., 48 hours, read-out: Minimum Inhibitory Concentration (MIC)

Structure (SMILES): N#CSc1nsnc1Cl [Example 1, 4-Chloro-3-thiocyanato-1,2,5-thiadiazole]
MIC ([1]; 72 h): < 10 µg/mL | MIC [2, 17]: 25 µg/mL (≈ 141 µM) | MIC [2, 18]: > 500 µg/mL | MIC ([3]; 48 h): < 10 µg/mL | MIC [4, 17]: 25 µg/mL (≈ 141 µM) | MIC [4, 18]: 500 µg/mL (≈ 2810 µM) | MIC ([5]; 72 h): < 10 µg/mL | MIC [6, 17]: 25 µg/mL (≈ 141 µM) | MIC [6, 18]: > 500 µg/mL | MIC ([7]; 72 h): < 10 µg/mL | MIC ([8]; 48 h): < 10 µg/mL | MIC ([9]; 72 h): < 10 µg/mL | MIC [10, 17]: 25 µg/mL (≈ 141 µM) | MIC [10, 18]: > 500 µg/mL | MIC [11, 17]: 25 µg/mL (≈ 141 µM) | MIC [11, 18]: > 500 µg/mL | MIC [12, 17]: 50 µg/mL (≈ 281 µM) | MIC [12, 18]: > 500 µg/mL | MIC [13, 17]: 25 µg/mL (≈ 141 µM) | MIC [13, 18]: > 500 µg/mL | MIC [14, 17]: 25 µg/mL (≈ 141 µM) | MIC [14, 18]: > 500 µg/mL | MIC ([15]; 72 h): < 10 µg/mL | MIC [16, 17]: 50 µg/mL (≈ 281 µM) | MIC [16, 18]: > 500 µg/mL

MIC [1, 19]: < 10 µg/mL | MIC [2, 20]: < 10 µg/mL | MIC [2, 21]: 25 µg/mL (≈ 112 µM) | MIC [3, 22]: < 10 µg/mL | MIC [4, 23]: < 10 µg/mL | MIC [4, 24]: 25 µg/mL (≈ 112 µM) | MIC [5, 25]: < 10 µg/mL | MIC [6, 26]: 25 µg/mL (≈ 112 µM) | MIC [6, 27]: 100 µg/mL (≈ 447 µM) | MIC [7, 28]: < 10 µg/mL | MIC [8, 29]: < 10 µg/mL | MIC [9, 30]: < 10 µg/mL | MIC [10, 31]: 25 µg/mL (≈ 112 µM) | MIC [10, 32]: 50 µg/mL (≈ 223 µM) | MIC [11, 33]: 25 µg/mL (≈ 112 µM) | MIC [11, 34]: 50 µg/mL (≈ 223 µM) | MIC [12, 35]: < 10 µg/mL | MIC [12, 36]: 25 µg/mL (≈ 112 µM) | MIC [13, 37]: 25 µg/mL (≈ 112 µM) | MIC [13, 38]: 50 µg/mL (≈ 223 µM) | MIC [15, 41]: < 10 µg/mL | MIC [16, 42]: 25 µg/mL (≈ 112 µM) | MIC [16, 43]: 100 µg/mL (≈ 447 µM)
Structure (SMILES): N#CSCSc1nsnc1Cl [Example 3, 4-chloro-3-thiomethylthiocyanato-1,2,5,-thiadiazole]
MIC [14, 39]: 25 µg/mL (≈ 112 µM) | MIC [14, 40]: 50 µg/mL (≈ 223 µM)

MIC [1, 19]: > 500 µg/mL | MIC [2, 20]: > 500 µg/mL | MIC [2, 21]: > 500 µg/mL | MIC [3, 22]: < 10 µg/mL | MIC [4, 23]: > 500 µg/mL | MIC [4, 24]: > 500 µg/mL | MIC [5, 25]: < 10 µg/mL | MIC [6, 26]: > 500 µg/mL | MIC [6, 27]: > 500 µg/mL | MIC [7, 28]: < 10 µg/mL | MIC [8, 29]: 100 µg/mL (≈ 312 µM) | MIC [9, 30]: 250 µg/mL (≈ 780 µM) | MIC [10, 31]: > 500 µg/mL | MIC [10, 32]: > 500 µg/mL | MIC [11, 33]: > 500 µg/mL | MIC [11, 34]: > 500 µg/mL | MIC [12, 35]: > 500 µg/mL | MIC [12, 36]: > 500 µg/mL | MIC [13, 37]: > 500 µg/mL | MIC [13, 38]: > 500 µg/mL | MIC [15, 41]: < 10 µg/mL | MIC [16, 42]: > 500 µg/mL | MIC [16, 43]: > 500 µg/mL
Structure (SMILES): N#CSCCSc1nsnc1SCCSC#N [Example 5, Bis(thioethylthiocyanato)-1,2,5-thiadiazole]
MIC [14, 39]: > 500 µg/mL | MIC [14, 40]: > 500 µg/mL
